The text below walks through data of PubChem BioAssay AID1552 (Sanford-Burnham Center for Chemical Genomics, 2009).

SMILES strings stand for the structures. Active and inactive are the calls of the source. No rule for the calls is given here.

The experiment deals with Ubiquitin-conjugating enzyme E2 N (Homo sapiens) (UniProt P61088). In words: NMR detection of UBE2N ligand binding – biophysical, purified protein (AID 1552). As to conditions: NMR binding to purified UBE2N.
Ubiquitin-conjugating enzyme E2 N (Homo sapiens), sequence (P61088 whole entry, looked up): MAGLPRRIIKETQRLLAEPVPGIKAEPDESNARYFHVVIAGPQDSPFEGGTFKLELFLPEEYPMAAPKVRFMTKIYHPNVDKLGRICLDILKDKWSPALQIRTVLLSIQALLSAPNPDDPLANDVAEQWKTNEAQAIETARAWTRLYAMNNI
On to `Cc1nnc(N2CCc3ccccc3C2)[nH]c1=O`, for which the Kd was > 4 mM (inactive).
Consider `CC(C)CCCC1(C)C=Cc2c(O)c3c(c(CCC(C)C)c2O1)OC12C(CC4CC1C(C)(C)OC2(CCC(C)C(=O)O)C4O)C3=O` (stereo not drawn), for which the Kd is > 4 mM (inactive).
In the case of `Cc1ccc(-c2nc(-c3cccnc3)no2)cc1`, the Kd is > 4 mM (inactive).
With `CN(C(N)=O)C1(C)CCS(=O)(=O)C1` (stereo not drawn) the figure was > 4 mM (inactive).
Then `O=C(CS(=O)(=O)c1ccccc1)N1CCCCCC1`, with > 4 mM (inactive); and `O=C(NC1=NCCS1)c1cccc(F)c1`, with > 4 mM (inactive); and `COC1C=CC23c4cc5c(cc4CN(CC2O)[C@@H]3C1)OCO5` (stereo partly drawn), with > 4 mM (inactive).
Regarding `COc1ccc2c3c1O[C@H]1C[C@@H](O)C=C[C@@]31CCN(C)C2`, the Kd is > 4 mM (inactive).
As to `c1ccc2[nH]c(-c3cscn3)nc2c1`, the Kd was > 4 mM (inactive).
Take `COc1cccc(Oc2ccc(N)cn2)c1`: the Kd was > 4 mM (inactive).
Take `Cn1c(NCC(=O)O)nc2c1c(=O)[nH]c(=O)n2C`: the Kd was > 4 mM (inactive).
Take `O=C(C1CCNCC1)N1CCCCCC1`: the Kd is > 4 mM (inactive).
`Cc1c(CO)cnn1-c1ccccc1`: the Kd is > 4 mM (inactive).
Then `O=C(Nn1cnnc1)c1ccccc1Cl`, with > 4 mM (inactive); and `CC1=NN(C(N)=S)C(C)(C)C1`, with > 4 mM (inactive); and `N[C@@H](C(=O)O)[C@@H](O)[C@H](O)[C@H](O)CO`, with > 4 mM (inactive).
As to `COc1ccc(C(=O)/C=C2\NC(=S)NC2=O)cc1`, the Kd was > 4 mM (inactive).
Then `C=CC(=O)N1CC2CC(C1)c1cccc(=O)n1C2` (stereo not drawn), with > 4 mM (inactive); and `COCc1c(CN)cnc(C)c1N`, with > 4 mM (inactive).
Consider `C[C@H](CCC(=O)O)[C@H]1CCC2C3C(CC[C@@]21C)[C@@]1(C)CC[C@@H](O)C[C@H]1C[C@@H]3O` (stereo partly drawn), for which the Kd is > 4 mM (inactive).
With `O=C1CCC(C(=O)NCc2ccc(Cl)cc2)N1` (stereo not drawn) the figure was > 4 mM (inactive).
With `CSc1ccccc1NC(=O)c1c(C)noc1C` the figure was > 4 mM (inactive); with `c1cc2n(c1)CCNC2c1ccncc1` (stereo not drawn), > 4 mM (inactive); with `Cc1c(C(=O)N2CCOCC2)oc2c1C(=O)CC(C)(C)C2`, > 4 mM (inactive).
In the case of `COC(=O)C(O)c1ccccc1` (stereo not drawn), the Kd is > 4 mM (inactive).
Then `C=C[C@@](C)(O)CCC1C(=C)CCC2[C@@](C)(CO)CCC[C@]12C` (stereo partly drawn), with > 4 mM (inactive); and `Cc1occc1C(=O)Nc1nccs1`, with > 4 mM (inactive); and `COc1cc(C(=S)N2CCCC2)cc(Cl)c1O`, with > 4 mM (inactive).
Take `CS(=O)(=O)NC1CCN(Cc2ccccc2)CC1`: the Kd was > 4 mM (inactive).
On to `O=C(CSc1ncccn1)NCc1ccco1`, for which the Kd is > 4 mM (inactive).
With `CNC(=O)Oc1ccc2c(c1)[C@]1(C)CCN(C)[C@@H]1N2C` the figure was > 4 mM (inactive); with `CNS(=O)(=O)c1ccc2[nH]c(=O)[nH]c2c1`, > 4 mM (inactive).
With `O=C(c1ccccc1)N1CCN(c2ccccc2F)CC1`, the Kd was > 4 mM (inactive).
Take `O=C(c1ccccc1F)N1CCN(c2ccccc2)CC1`: the Kd was > 4 mM (inactive).
Turning to `COc1ccc(C)cc1S(=O)(=O)N1CCCCC1`, the Kd was > 4 mM (inactive).
With `CCOC(=O)C1CCC(=O)c2cccn21` (stereo not drawn) the figure was > 4 mM (inactive).
With `c1ccc2c(NC3=NCCS3)cccc2c1` the figure was > 4 mM (inactive).
Then `CC(=O)O[C@@H]1CC2C(C)(C)[C@H](O)C=C[C@]2(C)C2CC[C@]3(C)C(=CC(=O)O[C@H]3c3ccoc3)[C@@]21C` (stereo partly drawn), with > 4 mM (inactive); and `Nc1scc[n+]1CC(=O)[O-]`, with > 4 mM (inactive); and `CC1(C)CCC(C)(C)c2cc(C(=O)O)ccc21`, with > 4 mM (inactive).
On to `Nc1ncnc2c1ncn2CCOc1ccccc1`, for which the Kd is > 4 mM (inactive).
Then `COC(=O)CSc1nc(N)cc(=O)[nH]1`, with > 4 mM (inactive); and `c1coc(CNc2ncnc3nc[nH]c23)c1`, with > 4 mM (inactive); and `S=c1[nH]ncn1-c1ccccc1`, with > 4 mM (inactive).
With `COc1ccc(NC2=NCC(C)S2)cc1` (stereo not drawn) the figure was > 4 mM (inactive); with `C=CCNC(=O)c1ccc(Cl)cc1Cl`, > 4 mM (inactive); with `CCOC(=O)c1ccc(F)c(F)c1`, > 4 mM (inactive).
With `[O-][n+]1cc(O)c(CN2CCOCC2)c2ccccc21` the figure was > 4 mM (inactive); with `O=C(Nc1ccncc1)Nc1ccc(F)cc1F`, > 4 mM (inactive).
For `NC1=NC(=O)/C(=C/c2ccccc2[N+](=O)[O-])S1`, the Kd is > 4 mM (inactive).
With `Cc1ccc(C)n1CCN1CCNCC1` the figure was > 4 mM (inactive).
Then `C/C(N)=C/C(=O)N1CCCCC1`, with > 4 mM (inactive); and `NS(=O)(=O)c1ccc(N=C2NC(=O)CS2)cc1`, with > 4 mM (inactive).
Then `C=C1[C@H]2CC[C@@]3(C)[C@H](c4ccoc4)OC(=O)C[C@]13O[C@H]1C[C@H](O)C(C)(C)[C@H](CC(=O)OC)[C@]12C`, with > 4 mM (inactive); and `Nc1ccc2c(c1)OCO2`, with > 4 mM (inactive).
Turning to `COc1ccc(C(C)=O)c(O)c1`, the Kd was > 4 mM (inactive).
Then `COc1ccc2c(c1)C(NC(C)=O)C(=O)N2C` (stereo not drawn), with > 4 mM (inactive); and `Cc1ccn(S(=O)(=O)c2ccc(F)cc2)n1`, with > 4 mM (inactive).
For the molecule `O=C1c2ccncc2C(=O)N1CO`, the Kd was > 4 mM (inactive).
With `O=C(Nc1ccccc1F)c1ccncc1` the figure was > 4 mM (inactive); with `CSc1nc(NC(C)C)nc(N2CCOCC2)n1`, > 4 mM (inactive).
With `CCOC(=O)CC1Sc2ccccc2NC1=S` (stereo not drawn) the figure was > 4 mM (inactive); with `CC(C)Nc1ncnc2c1nnn2C`, > 4 mM (inactive); with `O=C1NC(=O)C(=Cc2ccccc2)C(=O)N1`, > 4 mM (inactive).
Then `COc1ccccc1-c1nc(=S)[nH][nH]1`, with > 4 mM (inactive); and `c1ccc(-c2nc3ccccc3nc2-c2ccccn2)nc1`, with > 4 mM (inactive).
For `CC(CCC(=O)O)[C@H]1CCC2C3CC[C@@H]4CCCC[C@]4(C)C3CC[C@@]21C` (stereo partly drawn), the Kd is > 4 mM (inactive).
Then `CC1CCN(C(=O)c2cc3ccccc3o2)CC1`, with > 4 mM (inactive); and `CNC(=S)Nc1ccc(OC)cc1C`, with > 4 mM (inactive).
With `ON=c1ccc2nc3ccccc3nc2cc1` the figure was > 4 mM (inactive); with `c1ccc2c(c1)ncn2CCn1cnc2ccccc21`, > 4 mM (inactive).
With `COC(=O)C1CSCC1=O` (stereo not drawn) the figure was > 4 mM (inactive); with `COc1cccc(/C=N/N=C2/NC(=O)CS2)c1`, > 4 mM (inactive).
Take `CC(C)(C)CC(=O)NNC(=O)c1cnccn1`: the Kd is > 4 mM (inactive).
For `C=C1C2CC[C@@]3(C)[C@H](c4ccoc4)OC(=O)C[C@]13O[C@H]1C[C@H](OC(C)=O)C(C)(C)[C@H](CC(=O)OC)[C@@]21C`, the Kd was > 4 mM (inactive).
With `CC(=O)Nc1cccc(-c2nnc3n2CC(C)S3)c1` (stereo not drawn) the figure was > 4 mM (inactive); with `Nc1nc(SCc2ccccc2)ns1`, > 4 mM (inactive).
As to `Cc1cc2c(=O)n(C)c(SCC(N)=O)nc2s1`, the Kd was > 4 mM (inactive).
Then `C=C[C@@]1(C)CC(=O)[C@@]2(O)[C@](C)(O1)[C@@H](OC(C)=O)[C@@H](O)C1C(C)(C)CC[C@H](O)[C@@]12C` (stereo partly drawn), with > 4 mM (inactive).
Regarding `COc1ccccc1NC(N)=S`, the Kd was > 4 mM (inactive).
Then `COC(=O)c1ccc(N2CCCC2)nc1`, with > 4 mM (inactive); and `CC1(C)CC2(C)N(N)C(=O)CN2C(=S)N1` (stereo not drawn), with > 4 mM (inactive); and `O=C(Nc1ccc2c(c1)OCO2)c1ccc(=O)[nH]n1`, with > 4 mM (inactive).
Take `CS(C)=C1C(=O)NC(=O)N(c2ccccc2)C1=O`: the Kd is > 4 mM (inactive).
Then `CC(=O)Nc1ccc(N2C(=O)C=CC2=O)cc1C`, with > 4 mM (inactive); and `COc1ccc2c(c1OC)C(=O)O[C@H]2[C@H]1c2cc3c(cc2CCN1C)OCO3`, with > 4 mM (inactive).
Then `CN1CCC(N2CCOCC2)CC1`, with > 4 mM (inactive); and `CCOC(=O)C1=C(C)N2CCN=C2S1`, with > 4 mM (inactive); and `Cc1cc(C)nc(N2CC(=O)N(C)C2=N)n1`, with > 4 mM (inactive).
Then `Nc1ccn(C2O[C@H](CO)[C@@H](O)[C@H]2O)c(=O)n1` (stereo partly drawn), with > 4 mM (inactive); and `Cc1cc(Cl)ccc1NC(=O)C(N)=O`, with > 4 mM (inactive).
In the case of `CC(C)c1ccccc1NC(=O)c1cnccn1`, the Kd is > 4 mM (inactive).
Then `CN(C)C(=O)C12CCC(C)(C(=O)O1)C2(C)C` (stereo not drawn), with > 4 mM (inactive); and `C/C=C(/C)C(=O)O[C@@H]1[C@H](OC(C)=O)[C@@]2(CO)C(CC1(C)C)C1=CCC3[C@@]4(C)CC[C@H](O[C@@H]5O[C@H](C(=O)O)[C@@H](O[C@@H]6O[C@H](CO)[C@@H](O)[C@H](O)[C@H]6O)[C@H](O)[C@H]5O[C@@H]5O[C@H](CO)[C@@H](O)[C@H](O)[C@H]5O)[C@](C)(CO)C4CC[C@@]3(C)[C@]1(C)C[C@H]2O` (stereo partly drawn), with > 4 mM (inactive).
Then `O=c1c(O)cccc2cc(O)c(O)c(O)c12`, with > 4 mM (inactive).
Consider `C[C@@H]1CC[C@]2(C(=O)O)CC[C@]3(C)C(=CCC4[C@@]5(C)CC[C@H](O)C(C)(C)C5CC[C@]43C)C2[C@H]1C` (stereo partly drawn), for which the Kd was > 4 mM (inactive).
With `O=C(c1cc(-c2ccccc2)on1)N1CCCC1` the figure was > 4 mM (inactive); with `CC(C)(O)[C@@H]1[C@H]2OC(=O)[C@@H]1[C@]1(O)C[C@H]3O[C@]34C(=O)O[C@H]2[C@]14C`, > 4 mM (inactive).

One may read the Kd as the constant that tells how readily two partners part at equilibrium.
